Data reported in publication PMC4415987 (Biomarkers : biochemical indicators of exposure, response, …, 2009).

Experiments:
lymphocyte mAChRs = format: binding, human; settings: for LOAEL toward mAChRs: human lymphocytes in vitro, PCB values regardless of the presence of MeHg
MAO-B = molecular target: T1, MAO-B (Homo sapiens, UniProt P27338); test: Platelet MAO-B activity; format: biochemical; settings: human platelets in vitro; for LOAEL toward MAO-B: not modified by MeHg addition
T1 sequence (P27338 1-520): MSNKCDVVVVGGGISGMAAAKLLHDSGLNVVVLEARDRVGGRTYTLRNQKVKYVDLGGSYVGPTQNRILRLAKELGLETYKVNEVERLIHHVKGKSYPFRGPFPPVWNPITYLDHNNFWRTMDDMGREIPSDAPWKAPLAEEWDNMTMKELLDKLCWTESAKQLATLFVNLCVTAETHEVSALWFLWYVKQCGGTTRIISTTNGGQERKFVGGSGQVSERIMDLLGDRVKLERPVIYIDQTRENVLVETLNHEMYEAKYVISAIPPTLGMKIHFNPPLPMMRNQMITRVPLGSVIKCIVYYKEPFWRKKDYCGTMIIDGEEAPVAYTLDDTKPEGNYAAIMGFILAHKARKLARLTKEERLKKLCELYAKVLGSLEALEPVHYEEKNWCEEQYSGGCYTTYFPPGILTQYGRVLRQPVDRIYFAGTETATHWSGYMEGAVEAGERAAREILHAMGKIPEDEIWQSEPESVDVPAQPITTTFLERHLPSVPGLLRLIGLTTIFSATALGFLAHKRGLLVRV

[1] = weaning rats given 1 mg MeHg kg−1 daily perinatally, cited from earlier work

Row | SMILES | LOAEL toward mAChRs (lymphocyte mAChRs) [µM] | LOAEL toward MAO-B (MAO-B) [µM] | also measured
1 | Oc1c(Cl)cc(-c2ccc(Cl)c(Cl)c2)c(Cl)c1Cl [4-OH-PCB-107] | 1 | 10 | –
2 | Clc1ccc(-c2ccc(Cl)cc2Cl)cc1 [PCB-28] | 1 | 10 | –
3 | Clc1cc(Cl)c(-c2cc(Cl)c(Cl)cc2Cl)cc1Cl [PCB-153, 2,2′,4,4′,5,5′-hexachlorobiphenyl] | 1 | – | IC50, MAO-B activity (MAO-B; in the presence or absence of 1 mM MeHg): No effect
4 | Clc1ccc(-c2ccc(Cl)c(Cl)c2)cc1Cl [PCB-77] | 0.1 | 10 | –
5 | [CH3][Hg][Cl] [MeHg, methylmercury] | 1 | – | IC50 (lymphocyte mAChRs; read-out: IC50, inhibition of [3H]QNB binding to lymphocyte mAChRs): 5 ± 0.9 µM; inhibitory effect on MAO-B activity (MAO-B; MeHg up to 1 mM): negligible; Hg concentration in the blood ([1]; ref Coccini et al. 2007a): 1.3 ± 0.4 µg/mL; Hg concentration in the brain ([1]; ref Coccini et al. 2007b): 1.5–2.8 ppm
6 | Clc1ccc(-c2ccc(Cl)c(Cl)c2Cl)cc1Cl [PCB-105] | 1 | 1 | –
7 | Clc1ccc(-c2cc(Cl)c(Cl)cc2Cl)cc1Cl [PCB-118] | 1 | 10 | –
